Assay results reported in ChEMBL document CHEMBL4507272 (2021).

Tests used:
[1] = molecular target: 5-hydroxytryptamine receptor 1A (Homo sapiens, UniProt P08908); experiment: GPCRScan assay: inhibition of 5-HT1A; set-up: radioligand conc. used [nm] 0.5 – 1.0, parental cells stable CHO
[2] = molecular target: Beta-1 adrenergic receptor (Homo sapiens, UniProt P08588); experiment: GPCRScan assay: inhibition of Beta1; set-up: radioligand conc. used [nm] 0.1 – 0.2, parental cells CHO Flp-In
[3] = system: Tyrosine-protein kinase ABL1 (Homo sapiens), P00519 [F317I]; details: Compound concentration 1000.0 nM
[4] = molecular target: Activin receptor type-1 (Homo sapiens) (UniProt Q04771); details: Compound concentration 1000.0 nM
[5] = system: ALK tyrosine kinase receptor (Homo sapiens), Q9UM73 [L1196M]; details: Compound concentration 1000.0 nM
[6] = molecular target: Serine/threonine-protein kinase BRSK1 (Homo sapiens) (UniProt Q8TDC3); details: Compound concentration 1000.0 nM
Serine/threonine-protein kinase BRSK1 (Homo sapiens), sequence (Q8TDC3 whole entry): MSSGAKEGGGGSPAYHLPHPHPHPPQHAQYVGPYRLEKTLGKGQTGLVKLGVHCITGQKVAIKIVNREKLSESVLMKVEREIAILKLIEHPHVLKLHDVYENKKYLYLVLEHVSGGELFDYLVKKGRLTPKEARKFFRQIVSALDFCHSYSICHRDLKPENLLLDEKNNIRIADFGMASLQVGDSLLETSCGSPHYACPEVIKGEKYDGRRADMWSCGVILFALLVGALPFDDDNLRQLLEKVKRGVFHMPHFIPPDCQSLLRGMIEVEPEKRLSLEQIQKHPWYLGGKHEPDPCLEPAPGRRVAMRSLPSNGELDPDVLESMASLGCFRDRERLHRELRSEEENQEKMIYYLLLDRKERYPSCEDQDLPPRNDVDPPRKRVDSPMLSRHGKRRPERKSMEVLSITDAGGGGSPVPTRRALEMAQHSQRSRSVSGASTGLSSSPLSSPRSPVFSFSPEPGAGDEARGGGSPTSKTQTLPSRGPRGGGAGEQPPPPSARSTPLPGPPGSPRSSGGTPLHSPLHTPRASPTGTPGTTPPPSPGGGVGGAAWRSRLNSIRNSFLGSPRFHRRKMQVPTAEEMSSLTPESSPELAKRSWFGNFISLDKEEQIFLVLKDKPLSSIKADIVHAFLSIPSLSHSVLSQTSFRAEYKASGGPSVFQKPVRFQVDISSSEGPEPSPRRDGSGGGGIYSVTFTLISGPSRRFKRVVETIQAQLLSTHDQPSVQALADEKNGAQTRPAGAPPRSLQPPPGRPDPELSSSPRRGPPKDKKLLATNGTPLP

[7] = molecular target: Calcium/calmodulin-dependent protein kinase kinase 2 (Homo sapiens) (UniProt Q96RR4); details: Compound concentration 1000.0 nM
[8] = molecular target: Cyclin-dependent kinase 3 (Homo sapiens) (UniProt Q00526); details: Compound concentration 1000.0 nM
Cyclin-dependent kinase 3 (Homo sapiens), sequence (Q00526 whole entry, looked up): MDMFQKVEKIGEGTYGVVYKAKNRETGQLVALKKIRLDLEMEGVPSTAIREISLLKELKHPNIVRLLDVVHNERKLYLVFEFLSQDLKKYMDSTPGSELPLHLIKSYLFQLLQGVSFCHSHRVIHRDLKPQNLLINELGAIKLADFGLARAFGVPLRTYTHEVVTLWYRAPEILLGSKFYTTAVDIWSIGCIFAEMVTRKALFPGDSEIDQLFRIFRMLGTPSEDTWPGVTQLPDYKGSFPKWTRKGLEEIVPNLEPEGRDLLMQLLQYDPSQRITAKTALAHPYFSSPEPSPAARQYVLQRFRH

[9] = molecular target: Cyclin-dependent kinase 4 (Homo sapiens) (UniProt P11802); details: Compound concentration 1000.0 nM
[10] = molecular target: Cyclin-dependent kinase 7 (Homo sapiens) (UniProt P50613); details: Compound concentration 1000.0 nM
[11] = molecular target: Cyclin-dependent kinase-like 1 (Homo sapiens) (UniProt Q00532); details: Compound concentration 1000.0 nM
[12] = molecular target: Tyrosine-protein kinase CSK (Homo sapiens) (UniProt P41240); details: Compound concentration 1000.0 nM
Tyrosine-protein kinase CSK (Homo sapiens), sequence (P41240 2-450 limits assumed): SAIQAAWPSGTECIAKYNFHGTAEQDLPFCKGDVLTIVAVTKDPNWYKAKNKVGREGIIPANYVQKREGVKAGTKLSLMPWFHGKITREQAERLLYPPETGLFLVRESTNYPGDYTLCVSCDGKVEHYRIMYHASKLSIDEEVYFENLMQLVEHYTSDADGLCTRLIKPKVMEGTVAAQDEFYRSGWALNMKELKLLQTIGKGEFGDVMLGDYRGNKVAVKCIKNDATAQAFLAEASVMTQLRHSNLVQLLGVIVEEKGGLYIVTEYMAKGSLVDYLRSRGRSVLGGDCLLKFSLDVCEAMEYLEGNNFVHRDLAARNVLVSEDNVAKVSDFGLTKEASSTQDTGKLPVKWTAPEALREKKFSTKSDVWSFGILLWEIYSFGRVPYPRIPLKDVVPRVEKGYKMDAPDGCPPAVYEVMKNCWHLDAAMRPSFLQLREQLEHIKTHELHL

[13] = molecular target: Casein kinase I isoform delta (Homo sapiens) (UniProt P48730); details: Compound concentration 1000.0 nM
[14] = molecular target: Casein kinase I isoform gamma-2 (Homo sapiens) (UniProt P78368); details: Compound concentration 1000.0 nM
Casein kinase I isoform gamma-2 (Homo sapiens), sequence (P78368 whole entry, looked up, canonical isoform): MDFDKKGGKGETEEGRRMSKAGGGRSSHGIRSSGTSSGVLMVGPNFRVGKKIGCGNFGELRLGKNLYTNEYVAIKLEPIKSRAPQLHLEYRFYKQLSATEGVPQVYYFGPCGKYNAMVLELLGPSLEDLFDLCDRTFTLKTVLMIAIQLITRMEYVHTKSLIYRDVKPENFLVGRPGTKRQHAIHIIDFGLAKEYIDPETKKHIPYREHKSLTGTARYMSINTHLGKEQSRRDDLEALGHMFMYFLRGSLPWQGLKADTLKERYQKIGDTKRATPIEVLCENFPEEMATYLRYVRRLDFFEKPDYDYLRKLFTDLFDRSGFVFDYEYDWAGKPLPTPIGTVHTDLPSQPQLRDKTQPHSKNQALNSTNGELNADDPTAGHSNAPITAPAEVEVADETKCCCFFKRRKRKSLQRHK

[15] = molecular target: Megakaryocyte-associated tyrosine-protein kinase (Homo sapiens) (UniProt P42679); details: Compound concentration 1000.0 nM
[16] = molecular target: Death-associated protein kinase 3 (Homo sapiens) (UniProt O43293); details: Compound concentration 1000.0 nM
[17] = molecular target: Serine/threonine-protein kinase DCLK1 (Homo sapiens) (UniProt O15075); details: Compound concentration 1000.0 nM
[18] = system: Epidermal growth factor receptor (Homo sapiens), P00533 [UNDEFINED MUTATION]; details: Compound concentration 1000.0 nM
[19] = molecular target: Fibroblast growth factor receptor 1 (Homo sapiens) (UniProt P11362); details: Compound concentration 1000.0 nM
[20] = molecular target: Vascular endothelial growth factor receptor 3 (Homo sapiens) (UniProt P35916); details: Compound concentration 1000.0 nM
[21] = molecular target: Homeodomain-interacting protein kinase 3 (Homo sapiens) (UniProt Q9H422); details: Compound concentration 1000.0 nM
[22] = system: Mast/stem cell growth factor receptor Kit (Homo sapiens), P10721 [V559D]; details: Compound concentration 1000.0 nM
Mast/stem cell growth factor receptor Kit (Homo sapiens), P10721 [V559D], sequence (P10721 whole entry V559D): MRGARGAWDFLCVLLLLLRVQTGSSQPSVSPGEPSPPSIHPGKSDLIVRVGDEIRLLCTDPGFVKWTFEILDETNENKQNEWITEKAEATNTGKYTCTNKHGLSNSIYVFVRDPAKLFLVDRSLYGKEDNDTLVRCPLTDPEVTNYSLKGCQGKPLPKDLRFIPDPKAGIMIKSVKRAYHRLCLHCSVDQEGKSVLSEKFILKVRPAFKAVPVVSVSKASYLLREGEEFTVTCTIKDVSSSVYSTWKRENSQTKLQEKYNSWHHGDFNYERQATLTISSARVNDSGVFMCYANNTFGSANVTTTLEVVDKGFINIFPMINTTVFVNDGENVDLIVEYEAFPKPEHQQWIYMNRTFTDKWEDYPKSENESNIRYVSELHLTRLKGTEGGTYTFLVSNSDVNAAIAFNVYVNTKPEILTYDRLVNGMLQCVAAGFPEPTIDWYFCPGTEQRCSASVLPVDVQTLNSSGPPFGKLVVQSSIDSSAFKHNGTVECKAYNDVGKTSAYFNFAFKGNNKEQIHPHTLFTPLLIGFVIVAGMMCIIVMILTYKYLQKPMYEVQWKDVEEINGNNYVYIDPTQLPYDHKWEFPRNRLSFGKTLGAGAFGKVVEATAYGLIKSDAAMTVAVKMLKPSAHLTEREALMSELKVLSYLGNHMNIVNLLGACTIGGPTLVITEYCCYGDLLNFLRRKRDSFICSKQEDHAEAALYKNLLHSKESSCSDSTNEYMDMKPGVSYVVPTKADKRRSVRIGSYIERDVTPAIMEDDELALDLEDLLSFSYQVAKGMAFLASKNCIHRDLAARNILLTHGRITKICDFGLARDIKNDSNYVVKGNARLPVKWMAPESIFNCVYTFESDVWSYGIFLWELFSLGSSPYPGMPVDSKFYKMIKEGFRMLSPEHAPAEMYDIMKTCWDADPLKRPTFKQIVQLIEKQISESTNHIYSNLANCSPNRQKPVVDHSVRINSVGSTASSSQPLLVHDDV

[23] = molecular target: Tyrosine-protein kinase Lck (Homo sapiens) (UniProt P06239); details: Compound concentration 1000.0 nM
[24] = molecular target: Mitogen-activated protein kinase kinase kinase 4 (Homo sapiens) (UniProt Q9Y6R4); details: Compound concentration 1000.0 nM
[25] = molecular target: MAP kinase-activated protein kinase 5 (Homo sapiens) (UniProt Q8IW41); details: Compound concentration 1000.0 nM
[26] = molecular target: Dual specificity mitogen-activated protein kinase kinase 2 (Homo sapiens) (UniProt P36507); details: Compound concentration 1000.0 nM
Dual specificity mitogen-activated protein kinase kinase 2 (Homo sapiens), sequence (P36507 whole entry): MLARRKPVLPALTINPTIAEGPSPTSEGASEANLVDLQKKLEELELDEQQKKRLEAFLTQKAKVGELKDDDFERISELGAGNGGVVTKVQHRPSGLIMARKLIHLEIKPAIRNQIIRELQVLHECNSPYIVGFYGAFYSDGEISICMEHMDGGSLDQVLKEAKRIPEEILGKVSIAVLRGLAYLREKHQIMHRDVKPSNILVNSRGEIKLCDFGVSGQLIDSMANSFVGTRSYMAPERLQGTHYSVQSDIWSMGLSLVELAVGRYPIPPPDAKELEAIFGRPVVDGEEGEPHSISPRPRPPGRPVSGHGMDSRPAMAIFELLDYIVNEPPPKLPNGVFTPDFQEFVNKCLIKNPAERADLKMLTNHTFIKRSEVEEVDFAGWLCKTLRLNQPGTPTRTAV

[27] = molecular target: Mitogen-activated protein kinase kinase kinase 9 (Homo sapiens) (UniProt P80192); details: Compound concentration 1000.0 nM
[28] = molecular target: Serine/threonine-protein kinase Nek11 (Homo sapiens) (UniProt Q8NG66); details: Compound concentration 1000.0 nM
Serine/threonine-protein kinase Nek11 (Homo sapiens), sequence (Q8NG66 whole entry): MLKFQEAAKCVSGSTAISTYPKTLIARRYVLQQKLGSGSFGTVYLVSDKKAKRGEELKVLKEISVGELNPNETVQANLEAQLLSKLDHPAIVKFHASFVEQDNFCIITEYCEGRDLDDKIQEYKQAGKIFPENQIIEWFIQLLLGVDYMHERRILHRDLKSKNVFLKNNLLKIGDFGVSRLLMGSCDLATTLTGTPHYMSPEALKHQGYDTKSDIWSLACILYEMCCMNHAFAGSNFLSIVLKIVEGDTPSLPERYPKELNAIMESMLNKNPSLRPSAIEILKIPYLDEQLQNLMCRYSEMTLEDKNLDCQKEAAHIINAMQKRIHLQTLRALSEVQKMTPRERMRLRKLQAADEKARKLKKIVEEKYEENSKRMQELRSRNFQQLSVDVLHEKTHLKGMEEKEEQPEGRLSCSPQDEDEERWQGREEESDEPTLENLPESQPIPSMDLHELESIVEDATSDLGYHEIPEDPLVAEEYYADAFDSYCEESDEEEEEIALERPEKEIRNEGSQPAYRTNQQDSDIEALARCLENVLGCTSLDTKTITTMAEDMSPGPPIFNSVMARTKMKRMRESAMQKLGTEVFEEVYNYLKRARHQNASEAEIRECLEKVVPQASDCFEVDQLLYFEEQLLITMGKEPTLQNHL

[29] = molecular target: Serine/threonine-protein kinase Nek3 (Homo sapiens) (UniProt P51956); details: Compound concentration 1000.0 nM
[30] = molecular target: Mitogen-activated protein kinase kinase kinase 14 (Homo sapiens) (UniProt Q99558); details: Compound concentration 1000.0 nM
[31] = molecular target: Mitogen-activated protein kinase 12 (Homo sapiens) (UniProt P53778); details: Compound concentration 1000.0 nM
[32] = molecular target: Calcium-dependent protein kinase 1 (Plasmodium falciparum) (UniProt P62344); details: Compound concentration 1000.0 nM
[33] = molecular target: Phosphorylase b kinase regulatory subunit alpha, liver isoform (Homo sapiens) (UniProt P46019); details: Compound concentration 1000.0 nM
[34] = molecular target: cGMP-dependent protein kinase 1 (Homo sapiens) (UniProt Q13976); details: Compound concentration 1000.0 nM
[35] = molecular target: Rho-associated protein kinase 2 (Homo sapiens) (UniProt O75116); details: Compound concentration 1000.0 nM
[36] = molecular target: Ribosomal protein S6 kinase alpha-4 (Homo sapiens) (UniProt O75676); details: Compound concentration 1000.0 nM
[37] = molecular target: Serine/threonine-protein kinase 16 (Homo sapiens) (UniProt O75716); details: Compound concentration 1000.0 nM
[38] = molecular target: Serine/threonine-protein kinase TAO1 (Homo sapiens) (UniProt Q7L7X3); details: Compound concentration 1000.0 nM
[39] = molecular target: Serine/threonine-protein kinase TAO3 (Homo sapiens) (UniProt Q9H2K8); details: Compound concentration 1000.0 nM
[40] = molecular target: Dual specificity testis-specific protein kinase 1 (Homo sapiens) (UniProt Q15569); details: Compound concentration 1000.0 nM
[41] = molecular target: TGF-beta receptor type-1 (Homo sapiens) (UniProt P36897); details: Compound concentration 1000.0 nM
[42] = molecular target: BDNF/NT-3 growth factors receptor (Homo sapiens) (UniProt Q16620); details: Compound concentration 1000.0 nM
[43] = molecular target: Tyrosine-protein kinase TXK (Homo sapiens) (UniProt P42681); details: Compound concentration 1000.0 nM
[44] = molecular target: Vascular endothelial growth factor receptor 2 (Homo sapiens) (UniProt P35968); details: Compound concentration 1000.0 nM
[45] = molecular target: Serine/threonine-protein kinase WNK1 (Homo sapiens) (UniProt Q9H4A3); details: Compound concentration 1000.0 nM

5-hydroxytryptamine receptor 1A, sequence (P08908 whole entry): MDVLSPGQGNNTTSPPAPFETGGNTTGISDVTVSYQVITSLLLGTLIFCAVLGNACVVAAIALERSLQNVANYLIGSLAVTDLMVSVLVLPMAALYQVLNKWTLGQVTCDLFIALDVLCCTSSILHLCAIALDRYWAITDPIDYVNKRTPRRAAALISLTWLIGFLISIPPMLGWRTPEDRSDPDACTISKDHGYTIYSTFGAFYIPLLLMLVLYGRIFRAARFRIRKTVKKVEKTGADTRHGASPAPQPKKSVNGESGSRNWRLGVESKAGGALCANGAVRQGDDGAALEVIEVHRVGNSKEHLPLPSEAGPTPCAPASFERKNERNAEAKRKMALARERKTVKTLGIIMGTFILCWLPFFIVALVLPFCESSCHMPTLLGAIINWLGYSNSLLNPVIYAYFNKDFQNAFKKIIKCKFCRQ
Beta-1 adrenergic receptor, sequence (P08588 whole entry): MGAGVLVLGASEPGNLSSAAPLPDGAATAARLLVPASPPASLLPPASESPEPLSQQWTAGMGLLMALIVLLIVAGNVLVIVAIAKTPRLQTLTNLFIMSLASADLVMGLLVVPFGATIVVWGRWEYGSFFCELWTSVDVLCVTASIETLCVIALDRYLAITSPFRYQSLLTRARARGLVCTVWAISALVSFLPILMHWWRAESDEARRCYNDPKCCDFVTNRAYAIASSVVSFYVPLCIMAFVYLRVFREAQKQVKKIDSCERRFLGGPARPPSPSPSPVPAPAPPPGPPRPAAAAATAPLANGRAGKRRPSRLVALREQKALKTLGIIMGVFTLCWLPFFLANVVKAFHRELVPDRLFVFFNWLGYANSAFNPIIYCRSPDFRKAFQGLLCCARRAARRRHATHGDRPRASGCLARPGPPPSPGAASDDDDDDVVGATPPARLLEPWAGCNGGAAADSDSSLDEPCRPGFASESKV

## CC(=O)C1=C(C)N(c2cccc(C(F)(F)F)c2)C(=O)N[C@@H]1c1ccc(C#N)nc1 [BAY-678]
[1]; read-out: Ki
  Ki: 4.98 µM
[1]; read-out: pKi (converted)
  Ki: 4.9 µM
[2]; read-out: Ki
  Ki: 5.45 µM
[2]; read-out: pKi (converted)
  Ki: 5.01 µM
[3]
  residual activity: 100%
[4]
  residual activity: 74.5%
[5]
  residual activity: 94.1%
[6]
  residual activity: 100%
[7]
  residual activity: 100%
[8]
  residual activity: 100%
[9]
  residual activity: 100%
[10]
  residual activity: 90.6%
[11]
  residual activity: 80.9%
[12]
  residual activity: 90%
[13]
  residual activity: 100%
[14]
  residual activity: 94.6%
[15]
  residual activity: 100%
[16]
  residual activity: 83.8%
[17]
  residual activity: 85.1%
[18]
  residual activity: 78.6%
[19]
  residual activity: 100%
[20]
  residual activity: 100%
[21]
  residual activity: 100%
[22]
  residual activity: 100%
[23]
  residual activity: 100%
[24]
  residual activity: 100%
[25]
  residual activity: 100%
[26]
  residual activity: 84.2%
[27]
  residual activity: 94%
[28]
  residual activity: 100%
[29]
  residual activity: 72%
[30]
  residual activity: 100%
[31]
  residual activity: 77.4%
[32]
  residual activity: 94.8%
[33]
  residual activity: 80.8%
[34]
  residual activity: 45.5%
[35]
  residual activity: 86.1%
[36]
  residual activity: 78.8%
[37]
  residual activity: 84.6%
[38]
  residual activity: 100%
[39]
  residual activity: 73%
[40]
  residual activity: 100%
[41]
  residual activity: 99.2%
[42]
  residual activity: 98.1%
[43]
  residual activity: 100%
[44]
  residual activity: 84%
[45]
  residual activity: 89%
